From the NIST ThermoML archive (doi:10.1016/j.fluid.2014.09.014)

How the values were obtained:
[1] = refractive index (Na D-line) (dimensionless); details: 298.15 K; 101.33 kPa; Liquid; Standard Abbe refractometry
[2] = 298.15 K; 101.33 kPa; Liquid; mechanical oscillator
[3] = Boiling temperature at pressure P; details: Liquid, Ebulliometric method (Recirculating still)
[4] = xn = mol fraction of the nth substance listed; details: 101 kPa, Liquid, mechanical oscillator
[5] = refractive index (other wavelength) (dimensionless); xn = mol fraction of the nth substance listed; details: 101 kPa, Liquid, Standard Abbe refractometry

CC(C)OC(C)C [diisopropyl ether]
Details | mass density [kg/m3] | refractive index
[1] | – | 1.3653
[2] | 718.3 | –

CO [methanol]
Details | mass density [kg/m3] | refractive index
[1] | – | 1.32666
[2] | 786.62 | –

[3]
Details | Boiling temperature at pressure P [°C]
26.55 kPa | 33.76
29.52 kPa | 36.0
32.46 kPa | 37.94
35.65 kPa | 39.93
37.8 kPa | 41.19
40.63 kPa | 42.76
43.23 kPa | 44.12
44.63 kPa | 44.83
48.35 kPa | 46.62
51.4 kPa | 48.00
53.97 kPa | 49.11
56.89 kPa | 50.32
59.55 kPa | 51.38
62.25 kPa | 52.41
64.9 kPa | 53.39
67.5 kPa | 54.32
70.07 kPa | 55.21
72.95 kPa | 56.17
75.66 kPa | 57.1
78.35 kPa | 57.90
81.05 kPa | 58.72
83.76 kPa | 59.52
86.46 kPa | 60.30
96.35 kPa | 63.00

CO [methanol] + CC(C)OC(C)C
[4], x1 = 1
Details | mass density [kg/m3]
293.15 K | 791.62
298.15 K | 786.62
303.15 K | 781.54
308.15 K | 776.5
313.15 K | 771.53
318.15 K | 766.6

refractive index, [5], x1 = 1
Details | Wavelength=40.47 nm | Wavelength=435.8 nm | Wavelength=486.1 nm | Wavelength=546.1 nm | Wavelength=587.6 nm | Wavelength=589.3 nm | Wavelength=632.8 nm | Wavelength=644 nm | Wavelength=706.5 nm
293.15 K | 1.33767 | 1.3353 | 1.3324 | 1.32991 | 1.32869 | 1.32864 | 1.32754 | 1.3273 | 1.3261
298.15 K | 1.33564 | 1.3333 | 1.3304 | 1.328 | 1.32671 | 1.32666 | 1.32558 | 1.32535 | 1.32415
303.15 K | 1.33357 | 1.33126 | 1.32839 | 1.32597 | 1.32471 | 1.32467 | 1.3236 | 1.32336 | 1.32219
308.15 K | 1.33153 | 1.32926 | 1.32637 | 1.32397 | 1.32274 | 1.32269 | 1.32163 | 1.32138 | 1.32021
313.15 K | 1.32947 | 1.32722 | 1.32434 | 1.32196 | 1.32073 | 1.32068 | 1.31965 | 1.31942 | 1.31825
318.15 K | 1.32742 | 1.32518 | 1.32234 | 1.31993 | 1.31874 | 1.3187 | 1.31768 | 1.31744 | 1.31631

CC(C)O [propan-2-ol]
Details | mass density [kg/m3] | refractive index
[1] | – | 1.37522
[2] | 782.45 | –

[3]
Details | Boiling temperature at pressure P [°C]
14.02 kPa | 39.48
16.09 kPa | 42.07
18.94 kPa | 45.20
21.65 kPa | 47.82
24.56 kPa | 50.31
26.99 kPa | 52.21
29.69 kPa | 54.2
32.53 kPa | 56.04
36.08 kPa | 58.20
38.28 kPa | 59.5
40.49 kPa | 60.7
43.63 kPa | 62.27
45.88 kPa | 63.37
48.77 kPa | 64.71
51.47 kPa | 65.91
54.24 kPa | 67.08
56.82 kPa | 68.12
59.59 kPa | 69.20
62.14 kPa | 70.2
65.69 kPa | 71.43
67.6 kPa | 72.09
70.27 kPa | 72.98
73.16 kPa | 73.93
75.65 kPa | 74.72
78.35 kPa | 75.6
81.05 kPa | 76.36
83.8 kPa | 77.16
86.4 kPa | 77.90
96.28 kPa | 80.54

CC(C)O [propan-2-ol] + CC(C)OC(C)C
[4], x2 = 0
Details | mass density [kg/m3]
293.15 K | 786.91
298.15 K | 782.45
303.15 K | 777.84
308.15 K | 773.13
313.15 K | 768.47
318.15 K | 763.79

refractive index, [5], x2 = 0
Details | Wavelength=404.7 nm | Wavelength=435.8 nm | Wavelength=486.1 nm | Wavelength=546.1 nm | Wavelength=587.6 nm | Wavelength=589.3 nm | Wavelength=632.8 nm | Wavelength=644 nm | Wavelength=706.5 nm
293.5 K | 1.3883 | 1.38525 | 1.38179 | 1.37892 | 1.37742 | 1.37736 | 1.37605 | 1.37574 | 1.37424
298.15 K | 1.3861 | 1.38307 | 1.37963 | 1.37678 | 1.37527 | 1.37522 | 1.37392 | 1.37361 | 1.37214
303.15 K | 1.38379 | 1.38078 | 1.37738 | 1.37453 | 1.37304 | 1.37299 | 1.3717 | 1.3714 | 1.36993
308.15 K | 1.38152 | 1.37851 | 1.37512 | 1.3723 | 1.3708 | 1.37075 | 1.36946 | 1.36917 | 1.36772
313.15 K | 1.37921 | 1.37624 | 1.37288 | 1.37005 | 1.36857 | 1.36852 | 1.36726 | 1.36696 | 1.36551
318.15 K | 1.37691 | 1.37397 | 1.37061 | 1.36782 | 1.36635 | 1.36629 | 1.36502 | 1.36473 | 1.36329
